# Measurements from patent publication US20260053834A1, “COVALENT MODIFIERS OF AKT1 AND USES THEREOF” (Terremoto Biosciences, Inc., priority 2023, published 2026).
# Experiments:
# [1] = system: LAPC4 prostate cancer cells, which express the AKT1 E17K allele; experiment: Antiproliferative effects in LAPC4 cells (CellTiter Glo, 72 h); assay type: cell-based; conditions: Homo sapiens, LAPC4, 72 h, read-out: LAPC4 proliferation IC50: GeoMean IC50
# In short: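 Cells grown in IMDM with 12% FBS, seeded at 1,000 cells/well and treated with compound dilutions in DMSO for 72 h. Intracellular ATP read by luminescence. IC50 from a log(inhibitor) vs. response Hill fit.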
# [2] = molecular target: T1, AKT1 E17K (Homo sapiens, UniProt P31749, E17K); experiment: Live cell target engagement by NanoBRET competitive probe displacement, AKT1 E17K; assay type: binding; conditions: transfected HEK293 cells, 2 h at 37° C., read-out: AKT1 E17K IC50: GeoMean IC50
# T1 construct: expressed in transfected cells; host or cells: HEK293
# T1 sequence (P31749 whole entry E17K): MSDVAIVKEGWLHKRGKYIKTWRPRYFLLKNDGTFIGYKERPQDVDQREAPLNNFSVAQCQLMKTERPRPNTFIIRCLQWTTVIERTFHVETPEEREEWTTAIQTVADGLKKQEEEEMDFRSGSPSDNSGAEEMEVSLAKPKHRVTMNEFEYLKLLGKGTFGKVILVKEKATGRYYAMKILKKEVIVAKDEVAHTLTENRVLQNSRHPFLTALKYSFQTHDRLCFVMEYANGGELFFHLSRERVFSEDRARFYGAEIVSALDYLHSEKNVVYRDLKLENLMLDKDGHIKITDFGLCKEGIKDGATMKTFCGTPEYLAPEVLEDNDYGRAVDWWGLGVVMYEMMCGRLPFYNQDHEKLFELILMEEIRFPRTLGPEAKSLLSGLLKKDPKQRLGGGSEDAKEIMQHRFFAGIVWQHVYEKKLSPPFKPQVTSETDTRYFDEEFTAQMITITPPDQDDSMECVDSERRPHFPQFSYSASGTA
# [3] = molecular target: T2, AKT1 WT (Homo sapiens, UniProt P31749); experiment: Live cell target engagement by NanoBRET competitive probe displacement, AKT1 WT; assay type: binding; conditions: transfected HEK293 cells, 2 h at 37° C., read-out: AKT1 WT IC50: GeoMean IC50
# T2 construct: expressed in transfected cells; host or cells: HEK293
# T2 sequence (P31749 whole entry): as the sequence (P31749 whole entry E17K) above, with K17E counted along it
# [4] = molecular target: T3, AKT2 (Homo sapiens, UniProt P31751); experiment: Live cell target engagement by NanoBRET competitive probe displacement, AKT2; assay type: binding; conditions: transfected HEK293 cells, 2 h at 37° C., read-out: AKT2 IC50: GeoMean IC50
# T3 construct: expressed in transfected cells; host or cells: HEK293
# T3 sequence (P31751 whole entry): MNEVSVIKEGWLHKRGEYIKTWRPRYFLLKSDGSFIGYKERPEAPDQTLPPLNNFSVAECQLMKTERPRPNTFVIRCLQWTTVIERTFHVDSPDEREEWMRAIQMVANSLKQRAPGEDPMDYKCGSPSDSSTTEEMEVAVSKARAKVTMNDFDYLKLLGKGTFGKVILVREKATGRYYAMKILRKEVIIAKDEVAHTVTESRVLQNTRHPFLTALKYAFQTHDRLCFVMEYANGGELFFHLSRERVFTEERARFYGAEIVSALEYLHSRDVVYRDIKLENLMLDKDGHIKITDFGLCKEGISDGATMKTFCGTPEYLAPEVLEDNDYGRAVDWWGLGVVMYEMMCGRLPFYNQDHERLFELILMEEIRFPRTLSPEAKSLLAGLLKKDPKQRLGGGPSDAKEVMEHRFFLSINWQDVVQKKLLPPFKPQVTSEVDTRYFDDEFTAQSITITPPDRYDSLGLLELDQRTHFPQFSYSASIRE
SMILES,IC50 [1] [nM],IC50 [2] [nM],IC50 [3] [nM],IC50 [4] [nM]
"Nc1ncccc1-c1nc2ccc(Cl)nc2n1-c1ccc2c(c1)CC[C@@H]2NC(=O)c1ccc(O)c(C=O)c1 [Example 136, N-[(1S)-5-[2-(2-aminopyridin-3-yl)-5-chloroimidazo[4,5-b]pyridin-3-yl]-2,3-dihydro-1H-inden-1-yl]-3-formyl-4-hydroxybenzamide]",100 to 2000,10 to 100,100 to 2000,≥ 2000
"CC(=O)Nc1ccc(C(=O)N[C@H]2CCc3cc(-n4c(-c5cccnc5N)nc5ccc(C)nc54)ccc32)cc1C=O [Example 45, N-[(1S)-5-[2-(2-aminopyridin-3-yl)-5-methylimidazo[4,5-b]pyridin-3-yl]-2,3-dihydro-1H-inden-1-yl]-4-acetamido-3-formylbenzamide]",100 to 2000,100 to 2000,100 to 2000,≥ 2000
"Nc1ncccc1-c1nc2ccc(-n3cccn3)nc2n1-c1ccc2c(c1)CC[C@@H]2N1CCc2cc(O)c(C=O)cc2C1=O [Example 177, 2-[(1S)-5-[2-(2-aminopyridin-3-yl)-5-(pyrazol-1-yl)imidazo[4,5-b]pyridin-3-yl]-2,3-dihydro-1H-inden-1-yl]-6-hydroxy-1-oxo-3,4-dihydroisoquinoline-7-carbaldehyde]",≥ 2000,≥ 2000,≥ 2000,100 to 2000
"COc1cc2nc(-c3cccnc3N)n(-c3ccc4c(c3)CC[C@@H]4NC(=O)c3ccc(O)c(C=O)c3)c2nc1-n1cccn1 [Example 215, N-[(1S)-5-[2-(2-aminopyridin-3-yl)-6-methoxy-5-(pyrazol-1-yl)imidazo[4,5-b]pyridin-3-yl]-2,3-dihydro-1H-inden-1-yl]-3-formyl-4-hydroxybenzamide]",100 to 2000,10 to 100,100 to 2000,100 to 2000
"Nc1ncccc1-c1nc2ccc(-n3cccn3)nc2n1-c1ccc2c(c1)CC[C@@H]2NC(=O)Cc1ccc(C=O)c(O)c1F [Example 216, (S)—N-(5-(2-(2-aminopyridin-3-yl)-5-(1H-pyrazol-1-yl)-3H-imidazo[4,5-b]pyridin-3-yl)-2,3-dihydro-1H-inden-1-yl)-2-(2-fluoro-4-formyl-3-hydroxyphenyl)acetamide; trifluoroacetic acid]",100 to 2000,10 to 100,100 to 2000,100 to 2000

# Second part, the compound after the results:
IC50 [1] [nM],IC50 [2] [nM],IC50 [3] [nM],IC50 [4] [nM],SMILES
10 to 100,10 to 100,10 to 100,100 to 2000,"Cc1cc(-n2nccn2)nc2c1nc(-c1cccnc1N)n2-c1ccc2c(c1)CC[C@@H]2NC(=O)c1cc(C=O)c(O)c(F)c1F [Example 227, N-[(1S)-5-[2-(2-aminopyridin-3-yl)-7-methyl-5-(1,2,3-triazol-2-yl)imidazo[4,5-b]pyridin-3-yl]-2,3-dihydro-1H-inden-1-yl]-2,3-difluoro-5-formyl-4-hydroxybenzamide]"
10 to 100,< 10,< 10,< 10,"Nc1ncccc1-c1nc2ccc(-c3ccccc3)nc2n1-c1ccc2c(c1)CC[C@@H]2NC(=O)c1cc(C=O)c2[nH]cnc2c1 [Example 162, N-[(1S)-5-[2-(2-aminopyridin-3-yl)-5-phenylimidazo[4,5-b]pyridin-3-yl]-2,3-dihydro-1H-inden-1-yl]-7-formyl-1H-1,3-benzodiazole-5-carboxamide]"
10 to 100,10 to 100,10 to 100,100 to 2000,"Nc1ncccc1-c1nc2ccc(-n3ccc(CO)n3)nc2n1-c1ccc2c(c1)CC[C@@H]2NC(=O)c1ccc(O)c(C=O)c1 [Example 127, (S)—N-(5-(2-(2-aminopyridin-3-yl)-5-(3-(hydroxymethyl)-1H-pyrazol-1-yl)-3H-imidazo[4,5-b]pyridin-3-yl)-2,3-dihydro-1H-inden-1-yl)-3-formyl-4-hydroxybenzamide]"
